The source of these data is patent US12595275B2, “Fluorine-containing compound and anti-cancer medical use thereof” (ASCENTAWITS PHARMACEUTICALS, LTD., priority 2019, dated 2026).

A value given as a limit tells only on which side of the number the result lay.

Assay [1] deals with H460 non-small cell lung cancer human tumor cell line. The assay is described as follows: In vitro human tumor cell line cytotoxicity (proliferation) assay, H460. It is filed as cell-based. The conditions noted are these: NCI-H460, H460 cells, 2 hrs compound exposure, wash, additional 70 hrs incubation, AlamarBlue. The protocol:
In vitro human tumor cell line cytotoxicity assays.
In vitro proliferation data on the H460 non-small cell lung cancer human tumor cell line is reported below in the compound table.
(§1) Specifically, exponentially growing cells were seeded at a density of 4×10^3 cells per well in a 96 well plate and incubated at 37° C. in 5% CO2, 95% air and 100% relative humidity for 24 hours prior to addition of test compounds. Compounds were solubilized in 100% DMSO at 200 times the desired final test concentration. At the time of drug addition, compounds were further diluted to 4 times the desired final concentration with complete medium. Aliquots of 50 μl of compound at specified concentrations were added to microtiter wells already containing 150 μl of medium, resulting in the final drug concentration reported. After drug addition, the plates were incubated for an additional 2 hours at 37° C., 5% CO2, 95% air, and 100% relative humidity, then the drug was washed off and fresh medium was added and the plates were incubated for addition 70 hrs at 37° C., 5% CO2, 95% air and 100% relative humidity. At the end of this incubation, the viable cells were quantified using the AlamarBlue assay.

The test system of another assay is H460 cancer cells. As to the kind of experiment: H460 proliferation assay in the presence of the specific AKR1C3 enzyme inhibitor TH-3021. Format: cell-based, human. The note with it: AKR1C3 inhibitor TH-3021 at 3 micromolar, added two hours before compound treatment, read-out: IC50 (nM) obtained when the AKR1C3 inhibitor TH-3021 was added. How it is done:
as §1
Similarly, in order to further verify that the compounds are activated by human AKR1C3 ([…] family 1 member C3), the effect of some of the compounds on the proliferation of H460 cancer cells was tested in the presence of a specific AKR1C3 enzyme inhibitor (at 3 micromolar concentration). The inhibitor-added compound solution was added to the cell culture two hours before the treatment with the compound. The inhibitor used was compound 36, i.e.,
[drawing 17] (TH-3021) in Flanagan et al., Bioorganic and Medicinal Chemistry (2014), pages 962-977.

`O=[N+]([O-])c1ccc(C(OP(=O)(N2CC2)N2CC2)C(F)(F)F)cc1Oc1ccc(-c2ccc(C(F)(F)F)cc2)nc1` (centres unmarked) [Compound No. 19]: the IC50 was 313 nM in assay [1] and more than 1000 nM with H460 cancer cells.

One may read the IC50 as the concentration at which inhibition is half-maximal.
